Assay results: patent US12589071B2, “Suckable and/or melt-in-mouth tablet based on hyaluronic acid and chondroitin sulphate and salts thereof” (SOFAR SWISS SA, priority 2017, dated 2026)

System: patients with a first diagnosis of GERD with extraesophageal (upper) symptoms
Assay: Randomised open-label clinical study, Experimental Part (II): RSI (Reflux Symptom Index) questionnaire
Assay type: in vivo, human
Description: The aim of the present study was to assess, in patients who, at the first diagnosis, presented with extraesophageal symptoms associated with gastroesophageal reflux disease (GERD), the effect of a 6-week treatment with the composition C1 comprising a chondroitin sulphate, a hyaluronic acid or a salt thereof and an aluminium hydroxide, in combination with a treatment with proton pump inhibitors (PPI) versus treatment with PPIs alone; i.e. to verify the reduction in the frequency of symptoms in patients by means of the Likert questionnaire, and the severity of upper symptoms, by means of the RSI (Reflux Symptom Index) questionnaire, and to assess Responders and Non-Responders in the two groups of patients after 6 weeks of treatment versus the baseline.
The multi-centre prospective, randomised, open-label clinical study, with two parallel arms of treatment, followed by the FU period, provided for the treatment, for 6 weeks, of 78 patients diagnosed for the first time, who presented with upper symptoms ascribable to a diagnosis of GERD, in the presence/absence of typical symptoms. The patients were thus randomly assigned, on an open-label basis, in a 1:1 ratio: • 39 patients were treated with C1+PPIs (omeprazole) for 6 weeks; and • 39 patients were treated only with a PPI (omeprazole) for 6 weeks. […]
On these occasions patients filled out the RSI questionnaire, for the assessment of the severity of symptoms, and the Likert scale, for the assessment of the reduction in the frequency of symptoms. […] In this period, only the use of omeprazole (PPI), at a constant dosage, was allowed, according to the indications of the investigator, both to the patients included in the untreated group and in the treatment group, as a rescue medication to control symptoms and safety data were assessed. […]

COc1ccc2[nH]c([S+]([O-])Cc3ncc(C)c(OC)c3C)nc2c1 (stereo not drawn) [PPI, omeprazole]
MEAN of DELTA RSI per treatment group (V4 (6 weeks) versus baseline V1, N 28 (C1 + PPI), N 36 (PPI)): −13.69
DELTA (RSI V4 versus RSI V1, individual subject) (after 6 weeks of treatment versus baseline, one line per subject, preliminary, listed as IPPI): −11
RSI V4 (individual subject score) (examination V4 after 6 weeks of treatment, one line per subject, preliminary, listed as IPPI): 13
